# Measurements published in PubChem BioAssay (NCI).
#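 Protocol summary: plate cells (96-well), add compound at 5 concentrations, incubate 48 h, interpolate endpoints linearly. At the GI50, growth is halved. TGI is the concentration that stops growth completely.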
# Legend:
# Assay in all cases: NCI anticancer screen, dose series, 48 h
# MCF7 breast = tested on: MCF7 breast
# T-47D breast = tested on: T-47D breast
# NCI-H23 lung = tested on: NCI-H23 lung
# RXF 393 renal = tested on: RXF 393 renal
# UO-31 renal = tested on: UO-31 renal
# EKVX NSCLC = tested on: EKVX NSCLC
# ACHN renal = tested on: ACHN renal
# 786-0 renal = tested on: 786-0 renal
# OVCAR-5 ovarian = tested on: OVCAR-5 ovarian
# HOP-92 NSCLC = tested on: HOP-92 NSCLC
# SF-539 CNS = tested on: SF-539 CNS
# SK-OV-3 ovarian = tested on: SK-OV-3 ovarian
# HCT-15 colon = tested on: HCT-15 colon
# NCI-H226 lung = tested on: NCI-H226 lung
# OVCAR-4 ovarian = tested on: OVCAR-4 ovarian
# DU-145 prostate = tested on: DU-145 prostate
# CAKI-1 renal = tested on: CAKI-1 renal
# HCT-116 colon = tested on: HCT-116 colon
# IGROV1 ovarian = tested on: IGROV1 ovarian
# NCI-H460 lung = tested on: NCI-H460 lung
# KM12 colon = tested on: KM12 colon
# K-562 leukemia = tested on: K-562 leukemia
# PC-3 prostate = tested on: PC-3 prostate
# M14 melanoma = tested on: M14 melanoma
# HL-60(TB) leukemia = tested on: HL-60(TB) leukemia
# SNB-75 CNS = tested on: SNB-75 CNS
# NCI-H522 lung = tested on: NCI-H522 lung
# HOP-62 NSCLC = tested on: HOP-62 NSCLC
# HS 578T breast = tested on: HS 578T breast
# BT-549 breast = tested on: BT-549 breast
# SR leukemia = tested on: SR leukemia
# SK-MEL-2 melanoma = tested on: SK-MEL-2 melanoma
# SF-295 CNS = tested on: SF-295 CNS
# SW-620 colon = tested on: SW-620 colon
# UACC-257 melanoma = tested on: UACC-257 melanoma
# SF-268 CNS = tested on: SF-268 CNS
# MDA-MB-468 breast = tested on: MDA-MB-468 breast
# SN12C renal = tested on: SN12C renal
# SNB-19 CNS = tested on: SNB-19 CNS
# MDA-MB-231 breast = tested on: MDA-MB-231 breast
# TK-10 renal = tested on: TK-10 renal
# COLO 205 colon = tested on: COLO 205 colon
# SK-MEL-28 melanoma = tested on: SK-MEL-28 melanoma
# A549 NSCLC = tested on: A549 NSCLC
# NCI/ADR-RES ovarian = tested on: NCI/ADR-RES ovarian
# SK-MEL-5 melanoma = tested on: SK-MEL-5 melanoma
# HT29 colon = tested on: HT29 colon
# OVCAR-8 ovarian = tested on: OVCAR-8 ovarian
# MALME-3M melanoma = tested on: MALME-3M melanoma
# MOLT-4 leukemia = tested on: MOLT-4 leukemia
# OVCAR-3 ovarian = tested on: OVCAR-3 ovarian
# LOX IMVI melanoma = tested on: LOX IMVI melanoma
# U251 CNS = tested on: U251 CNS
# A498 renal = tested on: A498 renal
# RPMI-8226 leukemia = tested on: RPMI-8226 leukemia
# HCC-2998 colon = tested on: HCC-2998 colon
# UACC-62 melanoma = tested on: UACC-62 melanoma
# MDA-MB-435 = tested on: MDA-MB-435
# CCRF-CEM leukemia = tested on: CCRF-CEM leukemia
smiles,measurement,setting,value
CCC(C)S(=O)(=O)c1oc(-c2ccc(C)cc2)nc1S(=O)(=O)c1ccccc1 (stereo not drawn),GI50,MCF7 breast,1.2 µM
same,TGI,MCF7 breast,2.86 µM
same,GI50,T-47D breast,1.87 µM
same,TGI,T-47D breast,4.41 µM
same,GI50,NCI-H23 lung,1.76 µM
same,TGI,NCI-H23 lung,3.55 µM
same,GI50,RXF 393 renal,1.48 µM
same,TGI,RXF 393 renal,3.1 µM
same,GI50,UO-31 renal,1.52 µM
same,TGI,UO-31 renal,2.85 µM
same,GI50,EKVX NSCLC,1.98 µM
same,TGI,EKVX NSCLC,4.21 µM
same,GI50,ACHN renal,1.65 µM
same,TGI,ACHN renal,3.01 µM
same,GI50,786-0 renal,1.67 µM
same,TGI,786-0 renal,3.37 µM
same,GI50,OVCAR-5 ovarian,2.83 µM
same,TGI,OVCAR-5 ovarian,9.59 µM
same,GI50,HOP-92 NSCLC,2.27 µM
same,TGI,HOP-92 NSCLC,6.37 µM
same,GI50,SF-539 CNS,1.67 µM
same,TGI,SF-539 CNS,3.03 µM
same,GI50,SK-OV-3 ovarian,17.2 µM
same,TGI,SK-OV-3 ovarian,33.3 µM
same,GI50,HCT-15 colon,1.45 µM
same,TGI,HCT-15 colon,3.18 µM
same,GI50,NCI-H226 lung,12.5 µM
same,TGI,NCI-H226 lung,30.5 µM
same,GI50,OVCAR-4 ovarian,2.67 µM
same,TGI,OVCAR-4 ovarian,7.84 µM
same,GI50,DU-145 prostate,1.98 µM
same,TGI,DU-145 prostate,4.57 µM
same,GI50,CAKI-1 renal,1.53 µM
same,TGI,CAKI-1 renal,3.15 µM
same,GI50,HCT-116 colon,1.52 µM
same,TGI,HCT-116 colon,3.62 µM
same,GI50,IGROV1 ovarian,1.96 µM
same,TGI,IGROV1 ovarian,3.75 µM
same,GI50,NCI-H460 lung,3.13 µM
same,TGI,NCI-H460 lung,12.1 µM
same,GI50,KM12 colon,8.37 µM
same,TGI,KM12 colon,23.4 µM
same,GI50,K-562 leukemia,1.38 µM
same,TGI,K-562 leukemia,> 100 µM
same,GI50,PC-3 prostate,3.14 µM
same,TGI,PC-3 prostate,11.2 µM
same,GI50,M14 melanoma,1.73 µM
same,TGI,M14 melanoma,3.83 µM
same,GI50,HL-60(TB) leukemia,1.6 µM
same,TGI,HL-60(TB) leukemia,4.91 µM
same,GI50,SNB-75 CNS,3.86 µM
same,TGI,SNB-75 CNS,17 µM
same,GI50,NCI-H522 lung,1.31 µM
same,TGI,NCI-H522 lung,2.77 µM
same,GI50,HOP-62 NSCLC,15.8 µM
same,TGI,HOP-62 NSCLC,33.2 µM
same,GI50,HS 578T breast,2.18 µM
same,TGI,HS 578T breast,7.36 µM
same,GI50,BT-549 breast,1.81 µM
same,TGI,BT-549 breast,3.42 µM
same,GI50,SR leukemia,2.73 µM
same,TGI,SR leukemia,> 100 µM
same,GI50,SK-MEL-2 melanoma,4.1 µM
same,TGI,SK-MEL-2 melanoma,16.2 µM
same,GI50,SF-295 CNS,11.3 µM
same,TGI,SF-295 CNS,23.4 µM
same,GI50,SW-620 colon,1.13 µM
same,TGI,SW-620 colon,2.47 µM
same,GI50,UACC-257 melanoma,1.89 µM
same,TGI,UACC-257 melanoma,4.24 µM
same,GI50,SF-268 CNS,2.65 µM
same,TGI,SF-268 CNS,8.81 µM
same,GI50,MDA-MB-468 breast,1.43 µM
same,TGI,MDA-MB-468 breast,2.99 µM
same,GI50,SN12C renal,1.72 µM
same,TGI,SN12C renal,3.34 µM
same,GI50,SNB-19 CNS,12.9 µM
same,TGI,SNB-19 CNS,25.5 µM
same,GI50,MDA-MB-231 breast,1.66 µM
same,TGI,MDA-MB-231 breast,3.15 µM
same,GI50,TK-10 renal,1.73 µM
same,TGI,TK-10 renal,3.44 µM
same,GI50,COLO 205 colon,2.67 µM
same,TGI,COLO 205 colon,6.02 µM
same,GI50,SK-MEL-28 melanoma,1.71 µM
same,TGI,SK-MEL-28 melanoma,3.14 µM
same,GI50,A549 NSCLC,13.5 µM
same,TGI,A549 NSCLC,32.3 µM
same,GI50,NCI/ADR-RES ovarian,2.35 µM
same,TGI,NCI/ADR-RES ovarian,5.7 µM
same,GI50,SK-MEL-5 melanoma,2.99 µM
same,TGI,SK-MEL-5 melanoma,11.6 µM
same,GI50,HT29 colon,2.04 µM
same,TGI,HT29 colon,4.86 µM
same,GI50,OVCAR-8 ovarian,3.09 µM
same,TGI,OVCAR-8 ovarian,10.7 µM
same,GI50,MALME-3M melanoma,1.65 µM
same,TGI,MALME-3M melanoma,3.03 µM
same,GI50,MOLT-4 leukemia,1.45 µM
same,TGI,MOLT-4 leukemia,> 100 µM
same,GI50,OVCAR-3 ovarian,1.63 µM
same,TGI,OVCAR-3 ovarian,3.23 µM
same,GI50,LOX IMVI melanoma,1.23 µM
same,TGI,LOX IMVI melanoma,2.58 µM
same,GI50,U251 CNS,15.5 µM
same,TGI,U251 CNS,31.2 µM
same,GI50,A498 renal,16.9 µM
same,TGI,A498 renal,30.7 µM
same,GI50,RPMI-8226 leukemia,2.16 µM
same,TGI,RPMI-8226 leukemia,8.17 µM
same,GI50,HCC-2998 colon,1.74 µM
same,TGI,HCC-2998 colon,3.3 µM
same,GI50,UACC-62 melanoma,1.76 µM
same,TGI,UACC-62 melanoma,3.75 µM
same,GI50,MDA-MB-435,1.74 µM
same,TGI,MDA-MB-435,3.85 µM
same,GI50,CCRF-CEM leukemia,0.287 µM
same,TGI,CCRF-CEM leukemia,1.33 µM
